The values below come from patent US20210228500A1, “CELLULAR RETINOID BINDING PROTEIN ANTAGONISTS AND USES THEREOF” (CASE WESTERN RESRVE UNIVERSITY, priority 2018, published 2021).

Assay [1] has as its target T1, CRBP1 (Homo sapiens, UniProt P09455).
T1 construct: made in house
T1 sequence (P09455 1-135): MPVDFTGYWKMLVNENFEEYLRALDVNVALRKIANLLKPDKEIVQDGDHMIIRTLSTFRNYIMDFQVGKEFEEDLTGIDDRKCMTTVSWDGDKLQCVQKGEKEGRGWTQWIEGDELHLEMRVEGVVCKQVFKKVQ
Nature of the assay: Fluorescence binding assay: atROL displacement from holo-CRBP1 (FRET). The note with it: for binding to / interaction with CRBP1: 0-10 μM range. On the procedure:
Human apo-CRBP1 was expressed and purified as described by Silvaroli et al. (J Biol Chem. 2016, 15; 291(16)) without any further modification to the established protocol.
To prepare holo-CRBP1, 3 mg of purified apoprotein was incubated for 15 min on ice with 2 molar excess of atROL (Toronto Research Chemicals) in 10 mM Tris-HCl, pH 8.0, 5% glycerol (v/v). The retinoid was delivered in acetonitrile (<1%, v/v). To remove excess of atROL, the protein solution was diluted 10× with 10 mM Tris-HCl, pH 8.0, centrifuged (36 000 g, 20 min, 4° C.) and loaded onto a 5 mL HiTrap Q HP column. Holo-CRBP1 was eluted from the column in conditions described in CRBP1 purification method. The efficiency of formation of holo-CRBP1 was examined by recording UV/vis spectrum of the repurified protein.
The apparent affinity of nonretinoid ligands was evaluated by monitoring changes in the fluorescence of holo-CRBP1. In the atROL bound form, the protein excited at 285 nm emitted fluorescence at 350 and 480 nm due to FRET between the protein scaffold and the retinoid moiety (FIG. 2A). Replacement of atROL in the binding site by tested ligands leads to disruption of FRET and consequently an increase in the fluorescence intensity at 350 nm with concomitant diminishing signal at 480 nm. All fluorescence measurements were performed using a PerkinElmer Life Sciences LS55 spectrofluorometer. The titrations were performed at 25° C. in 67 mM phosphate-buffered saline buffer, pH 7.4, containing 5% glycerol (v/v) by adding an increasing amount of an examined compound delivered in acetonitrile. […] All fluorescence spectra were corrected for the inner filter effect. The Ki values were calculated by fitting intensities of the protein fluorescence at the maximum emission (350 nm) or the intensity of retinoid fluorescence at 480 nm to the saturation single ligand-binding model. The data fitting and calculations of the Ki values were performed using SigmaPlot 11 software package (Systat Software).

For assay [2], the target named is T2, CRBP4 (Homo sapiens, UniProt Q96R05).
T2 construct: thrombin cut site (residual residues after digestion) (C); 6x histidine tag (C, cleaved yes); made in house; host or cells: E. coli BL21 (DE3) (as for CRBP2)
T2 sequence (Q96R05 1-134): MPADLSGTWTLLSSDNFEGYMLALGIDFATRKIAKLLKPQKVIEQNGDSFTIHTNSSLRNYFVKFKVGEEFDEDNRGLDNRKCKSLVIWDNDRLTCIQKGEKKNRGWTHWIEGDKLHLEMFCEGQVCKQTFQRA
Particulars: read-out: affinity for atROL; cited from earlier work.

Assay [3] concerns the target T1, CRBP1. Particulars: read-out: affinity for atROL; cited from earlier work.
Setting [4] is: fluorescence atROL-replacing assay.

For `C=C(C)[C@@H]1CCC(C)=C[C@H]1c1c(OC)cc(C)cc1OC` [0-1918, 1,3-dimethoxy-5-methyl-2-[(1R,6R)-3-methyl-6-prop-1-en-2-ylcyclohex-2-en-1-yl]benzene], the “binding to / interaction with CRBP1” value in assay [1] (setting [4]) was “abolished the meaningful binding”.
As to `C=C(C)[C@@H]1CCC(C)=CC1c1c(O)cc(C)cc1O` (stereo partly drawn) [CBDO, 5-methyl-2-[(6R)-3-methyl-6-prop-1-en-2-ylcyclohex-2-en-1-yl]benzene-1,3-diol], in assay [1] (fluorescence atROL-replacing assay, relative to abn-CBDO), the “further increase of the Ki value” turned out to be 6.3 fold.
With `C=C(C)[C@@H]1CCC(C)=C[C@H]1c1c(C)cc(O)cc1O` [abn-CBDO, 5-methyl-4-[(1R,6R)-3-methyl-6-prop-1-en-2-ylcyclohex-2-en-1-yl]benzene-1,3-diol], the “apparent affinity lowered compared with abn-CBD” value in assay [1] (fluorescence atROL-replacing assay, relative to abn-CBD) stood at 4.3 times.
By Ki is commonly meant the equilibrium dissociation constant of an inhibitor or competing ligand from its target. Take `CC1=C(/C=C/C(C)=C/C=C/C(C)=C/CO)C(C)(C)CCC1` [atROL, all-trans-retinol]: the inhibition constant (Ki) in assay [1] (reverse experiment: CRBP1 loaded with abn-CBD titrated with atROL, read-out: Ki value for replacing abn-CBD by vitamin A) is around 34 nM. The figures for the Kd in assay [2] and in assay [3] were 200 nM and below 1 nM, respectively.
Turning to `C=C(C)[C@H]1CC=C(C)CC1` [limonene, reference compound], the “binding to / interaction with CRBP1” value in assay [1] (setting [4]) is reported as “did not observe limonene interacting”.
